Results published in publication PMC7118210 (Frontiers in Pharmacology, 2020).
Like-named read-outs stand apart in the source and are kept apart here.

Assay: Single-dose pharmacokinetics in rats (plasma, UHPLC/MS/MS)
Assay type: in vivo, Sprague Dawley rats
Settings: for MRT last: read-out: MRT0-t; for MRT inf: read-out: MRT0-∞
From the text: Sixty healthy adult Sprague Dawley rats (180-220 g, half male and female) were purchased from the Guangdong Medical Laboratory Animal Center (Guangzhou, Guangdong, China). Thirty Beagle dogs (10-14 kg, half male and female) were purchased from the […] Laboratory Animal Science & Technology Co., Ltd. (Gaoyao, Guangdong, China). All animals were housed under humanized conditions with free access to food and water, and acclimated to the living conditions for at least one week prior to experimentation at the Laboratory Animal Center of the School of Life Sciences, Sun Yat-sen University. Environmental conditions were maintained at 20°C-25°C, 55% ± 15% relative humidity, 12-h light/dark cycles, and 12 air changes per hour. Prior to experimentation, the animals were fasted overnight with water available ad libitum. All animals were healthy based on physical examination and laboratory analyses performed before and after the experiments. At the end of the experiments, the dogs were returned to the Laboratory Animal Center of School of Life Sciences, Sun Yat-sen University. […] All blood samples were transferred into heparin-treated centrifuge tubes and centrifuged for 10 min at 4,000 rpm and 4°C. All human urine samples were mixed and transferred (4 ml) into storage tubes. All biological samples were stored at -80°C. […] The optimal volume and activity in unit volume of enzyme solution [0.2 M acetic acid/water solution: 0.2 M ammonium acetate/water solution, 15:35 (v/v)] were determined through a pretest of the enzyme (rat plasma, 10 μl, 10 U μl^-1; dog plasma, 10 μl, 10 U μl^-1; human plasma, 20 μl, 20 U μl^-1; human urine, 10 μl, 10 U μl^-1). After enzyme incubation, 10 μl of IS solution was added to the plasma and urine samples (2 μg ml^-1 quercetin 3-β-D-glucoside for rat and dog plasma; 583 ng ml^-1 naringin-D4 and 160 ng ml^-1 naringenin-D4 for human plasma; and 9,710 ng ml^-1 naringin-D4 and 6,000 ng ml^-1 naringenin-D4 for human urine). To each fecal sample, 9-fold methanol-normal saline (2:1, v/v) was added, mixed (18,000 rpm, 15 min) by vortexing and centrifuged (10 min, 9,000 rpm, 4°C). Next, 10 μl IS solution (971 ng ml^-1 naringin-D4 and 600 ng ml^-1 naringenin-D4) was added to the supernatants of feces (200 μl) without enzyme incubation. […] The solid material was dissolved with acetonitrile-water (1:1, v/v) and injected into the ultra high-performance liquid chromatography coupled with triple quadrupole mass spectrometry (UHPLC/MS/MS) system as described below. The analysis of nonclinical and clinical samples was performed with a UHPLC/MS/MS system that consisted of a Shimadzu Nexera X2 ultra high-performance liquid chromatography (UHPLC) (Shimadzu Corp., Kyoto, Japan) coupled with an AB Sciex API4000 triple-quadrupole mass spectrometry (MS/MS) system (AB Sciex, Foster City, CA, USA) equipped with an electrospray ionization source and controlled by Analyst (v. 1.6.2) software. […] The injection volume was 10 μl with the flow rate of 0.3 ml min^-1 for plasma, and 0.4 ml min^-1 for urine and feces. The compounds were detected by multiple reaction monitoring in the negative ion electrospray mode. The electrospray source conditions were as follows: ion source gas1 30 psi, ion source gas2 60 psi, curtain gas 20 psi, collisionally activated dissociation (CAD) gas 8 psi, temperature 500°C, and ion spray voltage -4,500 V. Zero air was used for ion source gas1 and ion source gas2 and nitrogen for curtain gas and CAD gas. […] All pharmacokinetic and excretion parameters were expressed as mean ± standard deviation (SD). All mean and SD values were reported to three significant figures. The pharmacokinetic parameters were calculated using the Phoenix WinNonlin software (Version 6.4, Pharsight Corp., Cary, NC, USA) and compared using the Student's t-test (p < 0.05) in SPSS 18.0 (SPSS Inc., Chicago, IL, USA). […]

[1] = both sexes, Sprague Dawley, rat, plasma, iv, 42 mg/kg
[2] = both sexes, Sprague Dawley, rat, plasma, iv, 42 mg/kg, read-out: Cmax
[3] = both sexes, Sprague Dawley, rat, plasma, iv, 42 mg/kg, read-out: Vd
[4] = both sexes, Sprague Dawley, rat, plasma, po, 10.5 mg/kg
[5] = both sexes, Sprague Dawley, rat, plasma, po, 21 mg/kg
[6] = both sexes, Sprague Dawley, rat, plasma, po, 42 mg/kg
[7] = both sexes, Sprague Dawley, rat, plasma, po, 168 mg/kg
[8] = female, Sprague Dawley, rat, plasma, iv, 42 mg/kg
[9] = female, Sprague Dawley, rat, plasma, iv, 42 mg/kg, read-out: Cmax
[10] = female, Sprague Dawley, rat, plasma, po, 10.5 mg/kg
[11] = female, Sprague Dawley, rat, plasma, po, 21 mg/kg
[12] = female, Sprague Dawley, rat, plasma, po, 42 mg/kg
[13] = female, Sprague Dawley, rat, plasma, po, 168 mg/kg
[14] = male, Sprague Dawley, rat, plasma, iv, 42 mg/kg
[15] = male, Sprague Dawley, rat, plasma, iv, 42 mg/kg, read-out: Cmax
[16] = male, Sprague Dawley, rat, plasma, po, 10.5 mg/kg
[17] = male, Sprague Dawley, rat, plasma, po, 21 mg/kg
[18] = male, Sprague Dawley, rat, plasma, po, 42 mg/kg
[19] = male, Sprague Dawley, rat, plasma, po, 168 mg/kg
[20] = naringin 168 mg kg^-1 p.o. single dose, rat
[21] = naringenin after naringin 168 mg kg^-1 p.o. single dose, rat

In the case of `C[C@@H]1O[C@@H](O[C@H]2[C@H](Oc3cc(O)c4c(c3)O[C@H](c3ccc(O)cc3)CC4=O)O[C@H](CO)[C@@H](O)[C@@H]2O)[C@H](O)[C@H](O)[C@H]1O` [naringin, Naringin], the AUC(0-inf) [1] is reported as 18100 ± 7550 ng·h/mL, the AUC(0-t) [1] is reported as 18100 ± 7580 ng·h/mL and the Tmax [1] is reported as 0.03 h. It also gave a clearance [1] of 48.3 mL/min/kg, a half-life [1] of 1.62 ± 1.18 h and a Cmax [2] of 88500 ± 51000 ng/mL. For the same molecule, the MRT last [1] was 0.496 ± 0.382 h, the MRT inf [1] was 0.57 ± 0.476 h and the Vd [3] was 8.29 ± 10 L/kg. The half-life (both sexes, Sprague Dawley, rat, plasma, po) was < 1 h, the AUC(0-inf) [4] was 35.7 ± 29.3 ng·h/mL and the AUC(0-t) [4] was 32.7 ± 27.7 ng·h/mL. The Tmax [4] was 1.5 ± 2.35 h, the half-life [4] was 0.328 ± 0.275 h and the Cmax (both sexes, Sprague Dawley, rat, plasma, po, 10.5 mg/kg, read-out: Cmax) was 31.7 ± 13.2 ng/mL. The MRT last [4] was 0.741 ± 0.423 h, the MRT inf [4] was 1.22 ± 0.297 h and the AUC(0-inf) [5] was 38.4 ± 21.4 ng·h/mL. For the same molecule, the AUC(0-t) [5] was 34.2 ± 20.3 ng·h/mL, the Tmax [5] was 1.53 ± 2.36 h and the half-life [5] was 0.5 ± 0.493 h. For the same molecule, the Cmax (both sexes, Sprague Dawley, rat, plasma, po, 21 mg/kg, read-out: Cmax) was 30.5 ± 16.3 ng/mL, the MRT last [5] was 1.18 ± 0.399 h and the MRT inf [5] was 1.42 ± 0.621 h. For the same molecule, the AUC(0-inf) [6] was 45.1 ± 55.4 ng·h/mL, the AUC(0-t) [6] was 40.7 ± 51.3 ng·h/mL and the Tmax [6] was 1.18 ± 1.78 h. It also gave a half-life [6] of 0.463 ± 0.598 h, a Cmax (both sexes, Sprague Dawley, rat, plasma, po, 42 mg/kg, read-out: Cmax) of 52.6 ± 78.8 ng/mL and an MRT last [6] of 1.1 ± 0.381 h. The MRT inf [6] was 1.24 ± 0.292 h, the AUC(0-inf) [7] was 145 ± 66.4 ng·h/mL and the AUC(0-t) [7] was 140 ± 66.3 ng·h/mL. For the same molecule, the Tmax [7] was 2.85 ± 4.06 h, the half-life [7] was 0.738 ± 0.781 h and the MRT last [7] was 2.01 ± 0.451 h. It also gave an MRT inf [7] of 1.96 ± 1.08 h, a Tmax (both sexes, Sprague Dawley, rat, plasma, po, rats, nonclinical p.o. administration studies overall) of 1.77 ± 2.64 h and an AUC(0-inf) [8] of 14800 ± 7280 ng·h/mL. For the same molecule, the AUC(0-t) [8] was 14800 ± 7290 ng·h/mL, the Tmax [8] was 0.03 h and the half-life [8] was 1.6 ± 0.972 h. It also gave a Cmax [9] of 70200 ± 60000 ng/mL, an AUC(0-inf) [10] of 34.6 ± 31.9 ng·h/mL and an AUC(0-t) [10] of 31.9 ± 29.9 ng·h/mL. The Tmax [10] was 1.05 ± 0.622 h, the half-life [10] was 0.465 ± 0.344 h and the Cmax (female, Sprague Dawley, rat, plasma, po, 10.5 mg/kg, read-out: Cmax) was 27.2 ± 11.2 ng/mL. The AUC(0-inf) [11] was 51.9 ± 15.7 ng·h/mL, the AUC(0-t) [11] was 47 ± 15.6 ng·h/mL and the Tmax [11] was 1.55 ± 2.49 h. For the same molecule, the half-life [11] was 0.675 ± 0.57 h, the Cmax (female, Sprague Dawley, rat, plasma, po, 21 mg/kg, read-out: Cmax) was 31.1 ± 16 ng/mL and the AUC(0-inf) [12] was 15.3 ± 11.6 ng·h/mL. For the same molecule, the AUC(0-t) [12] was 13.3 ± 10.3 ng·h/mL, the Tmax [12] was 1.7 ± 2.42 h and the half-life [12] was 0.55 ± 0.813 h. It also gave a Cmax (female, Sprague Dawley, rat, plasma, po, 42 mg/kg, read-out: Cmax) of 12.6 ± 9.42 ng/mL, an AUC(0-inf) [13] of 142 ± 52.4 ng·h/mL and an AUC(0-t) [13] of 137 ± 50.7 ng·h/mL. For the same molecule, the Tmax [13] was 1.95 ± 3.39 h, the half-life [13] was 0.85 ± 0.854 h and the Cmax (female, Sprague Dawley, rat, plasma, po, 168 mg/kg, read-out: Cmax) was 95.8 ± 54.4 ng/mL. The AUC(0-inf) [14] was 21400 ± 6930 ng·h/mL, the AUC(0-t) [14] was 21300 ± 7030 ng·h/mL and the Tmax [14] was 0.03 h. It also gave a half-life [14] of 1.65 ± 1.48 h, a Cmax [15] of 106000 ± 37600 ng/mL and an AUC(0-inf) [16] of 36.9 ± 30.2 ng·h/mL. For the same molecule, the AUC(0-t) [16] was 33.5 ± 28.8 ng·h/mL, the Tmax [16] was 1.95 ± 3.4 h and the half-life [16] was 0.19 ± 0.063 h. For the same molecule, the Cmax (male, Sprague Dawley, rat, plasma, po, 10.5 mg/kg, read-out: Cmax) was 36.1 ± 14.9 ng/mL, the AUC(0-inf) [17] was 24.8 ± 18 ng·h/mL and the AUC(0-t) [17] was 21.4 ± 16.5 ng·h/mL. The Tmax [17] was 1.5 ± 2.52 h, the half-life [17] was 0.325 ± 0.381 h and the Cmax (male, Sprague Dawley, rat, plasma, po, 21 mg/kg, read-out: Cmax) was 29.9 ± 18.5 ng/mL. For the same molecule, the AUC(0-inf) [18] was 74.9 ± 67.6 ng·h/mL, the AUC(0-t) [18] was 68.1 ± 62.7 ng·h/mL and the Tmax [18] was 0.65 ± 0.762 h. It also gave a half-life [18] of 0.375 ± 0.354 h, a Cmax (male, Sprague Dawley, rat, plasma, po, 42 mg/kg, read-out: Cmax) of 92.7 ± 99.4 ng/mL and an AUC(0-inf) [19] of 149 ± 84.3 ng·h/mL. The AUC(0-t) [19] was 144 ± 80.3 ng·h/mL, the Tmax [19] was 3.75 ± 4.85 h and the half-life [19] was 0.625 ± 0.781 h. The Cmax (male, Sprague Dawley, rat, plasma, po, 168 mg/kg, read-out: Cmax) was 113 ± 102 ng/mL, the Vd (naringin 10.5 mg kg^-1 p.o. single dose, rat) was 174 ± 98.3 L/kg and the Vd (naringin 21 mg kg^-1 p.o. single dose, rat) was 322 ± 239 L/kg. For the same molecule, the Vd (naringin 42 mg kg^-1 p.o. single dose, rat) was 586 ± 394 L/kg, the Cmax [20] was 104 ± 77.5 ng/mL and the Vd [20] was 639 ± 657 L/kg.
`O=C1C[C@@H](c2ccc(O)cc2)Oc2cc(O)cc(O)c21` [naringenin, Naringenin] showed an AUC(0-inf) [1] of 2390 ± 1110 ng·h/mL, an AUC(0-t) [1] of 2360 ± 1120 ng·h/mL and a Tmax [1] of 0.04 ± 0.021 h. It also gave a clearance [1] of 390 mL/min/kg, a half-life [1] of 2.45 ± 1.38 h and a Cmax [2] of 3980 ± 2510 ng/mL. For the same molecule, the MRT last [1] was 3.36 ± 2.11 h, the MRT inf [1] was 3.66 ± 2.14 h and the Vd [3] was 88.3 ± 113 L/kg. It also gave a half-life (both sexes, Sprague Dawley, rat, plasma, oral, naringenin in rats, studies overall) of 2.31 ± 1.21 h, a Tmax [8] of 0.043 ± 0.025 h and a half-life [8] of 2.91 ± 1.87 h. The Cmax [9] was 2430 ± 1550 ng/mL, the AUC(0-inf) [14] was 3010 ± 982 ng·h/mL and the AUC(0-t) [14] was 2990 ± 986 ng·h/mL. For the same molecule, the Cmax [15] was 5540 ± 2400 ng/mL, the CL [21] was 327 ± 288 mL/min/kg and the Vd [21] was 93.4 ± 121 L/kg. The lag-time in plasma (rats, after p.o. naringin) was 0.701 ± 0.523 h and the “time for concentrations to increase to Cmax after the lag-time” value (rats, after p.o. naringin) was 2.93 ± 2.01 h.
